Experimental findings from patent publication US20080176906A1, “Substituted Pyrrole Derivative” (Takeda Pharmaceutical Company Limited, priority 2004, published 2008) are described below.

Residue numbers refer to the chain shown, from its start.

The target in assay [1] is T1, wild-type androgen receptor (AR) (Homo sapiens, UniProt P10275).
T1 sequence (P10275 1-920): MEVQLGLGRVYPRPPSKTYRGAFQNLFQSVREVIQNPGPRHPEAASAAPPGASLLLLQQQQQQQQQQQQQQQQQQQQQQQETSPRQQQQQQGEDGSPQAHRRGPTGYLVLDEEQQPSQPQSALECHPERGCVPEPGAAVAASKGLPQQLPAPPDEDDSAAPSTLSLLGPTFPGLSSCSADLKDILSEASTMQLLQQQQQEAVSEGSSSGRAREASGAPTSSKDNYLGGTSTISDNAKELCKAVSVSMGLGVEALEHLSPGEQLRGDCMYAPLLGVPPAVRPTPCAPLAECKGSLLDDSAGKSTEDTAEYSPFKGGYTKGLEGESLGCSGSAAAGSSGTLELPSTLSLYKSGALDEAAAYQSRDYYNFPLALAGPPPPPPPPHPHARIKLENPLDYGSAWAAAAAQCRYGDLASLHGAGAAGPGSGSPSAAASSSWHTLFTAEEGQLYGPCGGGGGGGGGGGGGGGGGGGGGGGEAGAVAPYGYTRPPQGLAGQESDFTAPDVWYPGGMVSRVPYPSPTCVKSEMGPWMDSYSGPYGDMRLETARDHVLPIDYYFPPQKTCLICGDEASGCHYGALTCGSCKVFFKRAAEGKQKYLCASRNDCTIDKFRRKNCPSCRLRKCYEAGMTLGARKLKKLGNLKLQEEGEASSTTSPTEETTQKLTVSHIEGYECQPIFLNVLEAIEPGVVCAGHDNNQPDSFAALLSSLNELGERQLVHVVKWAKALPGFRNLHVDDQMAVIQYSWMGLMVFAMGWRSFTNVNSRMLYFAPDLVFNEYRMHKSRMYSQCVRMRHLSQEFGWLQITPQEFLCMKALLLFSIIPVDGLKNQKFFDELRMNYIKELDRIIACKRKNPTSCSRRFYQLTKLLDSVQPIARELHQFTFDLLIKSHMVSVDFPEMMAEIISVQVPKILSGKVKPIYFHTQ
In words: AR binding inhibitory test (wild type). The settings on record: 1 μM compound, 3 nM miboleron, 4° C. for 3 hours, dextran/charcoal B/F separation; read-out: Inhibitory rate (%) at 1 μM, Wild type. As to the method:
(§1) 3 nM miboleron and 1 μM of a compound was added to a solution containing a wild-type androgen receptor (AR) or an androgen receptor (AR) having a LNCaP type mutation, this was incubated at 4° C. for 3 hours, and B(Bound)/F(Free) separation was performed by a dextran/charcoal method. A label count of B was measured, and an inhibition rate of the compound was calculated.

Assay [2] deals with T2, androgen receptor (AR) having a LNCaP type mutation (Homo sapiens, UniProt P10275, T878A).
T2 sequence (P10275 1-920 T878A): T1 sequence (P10275 1-920) with T878A
In words: AR binding inhibitory test (LNCaP type). The conditions noted are these: 1 μM compound, 3 nM miboleron, 4° C. for 3 hours, dextran/charcoal B/F separation; read-out: Inhibitory rate (%) at 1 μM, LNCaP type. As to the method:
as §1

Assay [3] concerns human prostate cancer cell LNCaP-FGC. Nature of the assay: Prostate specific antigen (PSA) production inhibition in prostate cancer cell. Type of assay: cell-based. The settings on record: 72 h, 1 μM compound, testosterone 1 ng/mL, three days, PSA in culture supernatant by ELISA, testosterone non-added group 100%, testosterone-added group 0%, read-out: PSA production Inhibitory rate (%) at 1 μM. How it is done:
A human prostate cancer cell LNCaP-FGC was inoculated on a 96-well plate at 5000 cells/100 μL/well and, on the next day, testosterone having the final concentration of 1 ng/mL and 1 μM of a compound were added. Three days after addition, the PSA concentration in the culture supernatant was measured by ELISA, and a PSA production inhibition rate was calculated, letting the rate of a testosterone non-added group to be 100%, and letting the rate of a testosterone-added group to be 0%.
(In general: ELISA stands for enzyme-linked immunosorbent assay.)

Another assay has as its target T3, mutated AR (W741C) (Homo sapiens, UniProt P10275, W742C).
T3 construct: expressed in transfected cells; host or cells: Cos-7
T3 sequence (P10275 1-920 W742C): T1 sequence (P10275 1-920) with W742C
In words: AR transcription inhibition test (luciferase reporter in Cos-7). It counts as cell-based. The conditions noted are these: 0.1 μM compound, DHT 0.04 μM, 24 hours, luciferase activity, relative to a control. As to the method: 5,000,000 Cells of Cos-7 was inoculated on a flask, and cultured in a culturing solution (DMEM+10% Dextran Charcoal (DCC)-Fetal Bovine Serum (FBS)+2 mM glutamine) for 24 hours, and a vector DNA in which mutated AR (W741C) had been inserted, and a vector DNA in which a luciferase gene had been connected downstream of an androgen-responsive promoter were transfected by a liposome method. After two hours, the medium was exchanged, the cells were cultured for 3 hours, DHT (dihydrotestosterone) having the final concentration of 0.04 μM and an assessment compound having the final concentration of 0.1 μM were added, and the cells were cultured for 24 hours, and luciferase activity was measured to investigate AR transcription inhibition activity of the assessment compound.

In the next assay the test system is mouse prostate. In words: Test of reduction in weight of mouse prostate. Type of assay: in vivo. The settings on record: orally 50 mg/kg/day for 7 days, 8 week old male mouse; drug non-addition 0%, castration 100%. The text has this: A rate of reduction in a prostate weight is shown in Table 5, letting at drug non-addition to be 0%, and letting at castration to be 100%.

With `CCc1c(C#N)c(-c2ccc(C#N)cc2)c(C)n1Cc1cnc(Cl)c(CO)c1` [Compound 2, 1-{[6-Chloro-5-(hydroxymethyl)pyridin-3-yl]methyl}-4-(4-cyanophenyl)-2-ethyl-5-methyl-1H-pyrrole-3-carbonitrile], the values for the inhibition at 1 µM in assay [1], in assay [2] and in assay [3] were 99%, 94% and 95%, respectively. In addition, the “AR transcription Inhibitory rate (%) at 0.1 μM” value at mutated AR (W741C) is 30%.

`CCCc1c(C#N)c(-c2ccc(C#N)cc2)c(C)n1Cc1cnc(Cl)c(CO)c1` [Compound 3, 1-{[6-Chloro-5-(hydroxymethyl)pyridin-3-yl]methyl}-4-(4-cyanophenyl)-5-methyl-2-propyl-1H-pyrrole-3-carbonitrile]: the inhibition at 1 µM in assay [1] was 96%; in assay [2], 99%; in assay [3], 99%. The “AR transcription Inhibitory rate (%) at 0.1 μM” value at mutated AR (W741C) was 78%.

On to `Cc1c(-c2ccc(C#N)cc2)c(C#N)c(C2CC2)n1Cc1cnc(Cl)c(CO)c1` [Compound 5, 1-{[6-Chloro-5-(hydroxymethyl)pyridin-3-yl]methyl}-4-(4-cyanophenyl)-2-cyclopropyl-5-methyl-1H-pyrrole-3-carbonitrile], for which the inhibition at 1 µM was found to be 98% in assay [1], 96% in assay [2] and 99% in assay [3]. For the same compound, the “AR transcription Inhibitory rate (%) at 0.1 μM” value at mutated AR (W741C) was 78%.

Take `Cc1c(C#N)c(-c2cccc(C#N)c2)c(C)n1Cc1cnc(Cl)c(CO)c1` [Compound 7, 1-{[6-Chloro-5-(hydroxymethyl)pyridin-3-yl]methyl}-4-(3-cyanophenyl)-2,5-dimethyl-1H-pyrrole-3-carbonitrile]: in assay [3], the inhibition at 1 µM came out at 94%.

Turning to `Cc1c(C#N)c(-c2ccc(C#N)cc2)c(C)n1Cc1ccc(Cl)c(CO)c1` [Compound 26, 1-[4-Chloro-3-(hydroxymethyl)benzyl]-4-(4-cyanophenyl)-2,5-dimethyl-1H-pyrrole-3-carbonitrile], the values for the inhibition at 1 µM in assay [1], in assay [2] and in assay [3] were 98%, 93% and 97%, respectively. For the same compound, the “AR transcription Inhibitory rate (%) at 0.1 μM” value at mutated AR (W741C) came to 53%.

As to `Cc1c(C#N)c(-c2ccc(C#N)cc2)c(C)n1Cc1cnc(Cl)c(C(O)C(F)(F)F)c1` (stereo not shown) [Example 38, 1-{[6-Chloro-5-(2,2,2-trifluoro-1-hydroxyethyl)pyridin-3-yl]methyl}-4-(4-cyanophenyl)-2,5-dimethyl-1H-pyrrole-3-carbonitrile], the inhibition at 1 µM in assay [3] is 94%. Also, the “Reduction rate (%) of prostate weight” value in the assay with mouse prostate is 68%.

Turning to `Cc1cc(-c2ccc(C#N)cc2)c(C)n1Cc1cnc(Cl)c(CO)c1` [Example 46, 4-(1-{[6-Chloro-5-(hydroxymethyl)pyridin-3-yl]methyl}-2,5-dimethyl-1H-pyrrol-3-yl)benzonitrile], the inhibition at 1 µM in assay [1] came to 86%; in assay [2], 89%; in assay [3] it was 95%.

As for `CCc1cc(-c2ccc(C#N)cc2)c(C)n1Cc1cnc(Cl)c(CO)c1` [Example 47, 4-(1-{[6-Chloro-5-(hydroxymethyl)pyridin-3-yl]methyl}-5-ethyl-2-methyl-1H-pyrrol-3-yl)benzonitrile], the inhibition at 1 µM in assay [1] came to 50%; in assay [2], 81%.

In the case of `Cc1c(-c2ccc(C#N)cc2)cc(C2CC2)n1Cc1cnc(Cl)c(CO)c1` [Example 48, 4-(1-{[6-Chloro-5-(hydroxymethyl)pyridin-3-yl]methyl}-5-cyclopropyl-2-methyl-1H-pyrrol-3-yl)benzonitrile], the inhibition at 1 µM in assay [1] was 30%; in assay [2] it was 87%; in assay [3], 98%.

`Cc1cc(-c2ccc(C#N)cc2)c(C#N)n1Cc1cnc(Cl)c(CO)c1` [Example 52, 1-{[6-Chloro-5-(hydroxymethyl)pyridin-3-yl]methyl}-3-(4-cyanophenyl)-5-methyl-1H-pyrrole-2-carbonitrile]: in assay [3], the inhibition at 1 µM amounted to 99%.
